These results are taken from patent US8568815B2, “Soluble complexes of curcumin” (Novobion Oy, priority 2008, dated 2013).

This data set can be described thus: Photostability, illumination with high intensity mercury lamp. The format is physicochemical. The conditions noted are these: methanol solution; dissolved in methanol (4 mmol/l), mercury lamp 200-600 nm; read-out: Half-life of decomposition during illumination.

`COc1cc(/C=C/C(=O)CC(=O)/C=C/c2ccc(O)c(OC)c2)ccc1O` [curcumin]: the half-life (as a rule, the time in which the quantity being followed falls by half) at 4 mmol/l was 1.08 h.
